Several values for one entry are separate records, joined by “and”; a condition that tells them apart may be missing. Identical values can stand only once.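 Briefly, cells in 96-well plates were exposed to five compound concentrations for 48 h, and endpoints were estimated by linear interpolation. GI50 = concentration required for 50% inhibition of growth. The concentration for full growth arrest is given as TGI.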
Legend:
Test in all cases: NCI-60 cell line screen, 48 h
CAKI-1 renal = system: CAKI-1 renal
COLO 205 colon = system: COLO 205 colon
KM12 colon = system: KM12 colon
M14 melanoma = system: M14 melanoma
MCF7 breast = system: MCF7 breast
NCI-H23 lung = system: NCI-H23 lung
OVCAR-3 ovarian = system: OVCAR-3 ovarian
SR leukemia = system: SR leukemia
U251 CNS = system: U251 CNS
UACC-62 melanoma = system: UACC-62 melanoma

Structure (SMILES)	GI50 (CAKI-1 renal)	TGI (CAKI-1 renal)	GI50 (COLO 205 colon)	TGI (COLO 205 colon)	GI50 (KM12 colon)	TGI (KM12 colon)	GI50 (M14 melanoma)	TGI (M14 melanoma)	GI50 (MCF7 breast)	TGI (MCF7 breast)	GI50 (NCI-H23 lung)	TGI (NCI-H23 lung)	GI50 (OVCAR-3 ovarian)	TGI (OVCAR-3 ovarian)	GI50 (SR leukemia)	TGI (SR leukemia)	GI50 (U251 CNS)	TGI (U251 CNS)	GI50 (UACC-62 melanoma)	TGI (UACC-62 melanoma)
O=C(/C=C/c1ccccc1Cl)c1ccc(O)cc1	6.87 µM	20.2 µM	12.8 µM	34.8 µM	3.57 µM	11.6 µM	10.6 µM	24.6 µM	2.45 µM	7.54 µM	10.6 µM	31.5 µM	3.46 µM	9.22 µM	2.82 µM	> 24.4 µM	3.41 µM	12.7 µM	7.88 µM	21.8 µM
C[C@@]12CCC[C@@](C)(C(=O)O)C1CC[C@]13C=C(CO)[C@](O)(CCC12)C3 (stereo not given in full)	> 100 µM	> 100 µM	> 100 µM	> 100 µM	> 100 µM	> 100 µM	> 100 µM	> 100 µM	> 100 µM	> 100 µM	> 100 µM	> 100 µM	> 100 µM	> 100 µM	> 100 µM	> 100 µM	> 100 µM	> 100 µM	> 100 µM	> 100 µM
O=C(O)c1ccc([N+](=O)[O-])c(P(=O)(O)O)c1		> 100 µM		> 100 µM		> 100 µM		> 100 µM		> 100 µM		> 100 µM		> 100 µM		> 100 µM		> 100 µM		> 100 µM
COc1ccc(C2=C(Br)C(=O)OC2)cc1Cl	8.52 µM	51.1 µM	0.832 µM	> 30.9 µM	23.6 µM	> 84.4 µM	> 53 µM	> 100 µM	29.6 µM	> 93 µM	29.5 µM	> 100 µM	45.7 µM	> 89.8 µM	22.1 µM	> 100 µM	28.5 µM	> 91.1 µM	20.9 µM	> 64.4 µM
CN(C)c1cc2c(cc1Sc1nc3c(N)nccc3n1CCNCC(C)(C)C)OCO2	0.591 µM	39.7 µM	0.37 µM	11.6 µM	0.305 µM	2.79 µM	0.532 µM	15.9 µM	0.311 µM	17.9 µM	0.448 µM	22.8 µM	0.614 µM	15.8 µM	0.25 µM	12.2 µM	0.726 µM	14.8 µM	0.432 µM	5.41 µM
NC(=O)c1cccc(N)c1	> 100 µM	> 100 µM	> 100 µM	> 100 µM	> 100 µM	> 100 µM	> 100 µM	> 100 µM	> 100 µM	> 100 µM	> 100 µM	> 100 µM	> 100 µM	> 100 µM	> 100 µM	> 100 µM	> 100 µM	> 100 µM	> 100 µM	> 100 µM
CCN1CCN(CCNc2nccc(-c3c(-c4cccc(O)c4)nc4sccn34)n2)S1(=O)=O	7.33 µM and 3 µM	28.5 µM and > 100 µM	0.296 µM and 0.336 µM	32.5 µM and 15.9 µM	11 µM and 11.2 µM	32.5 µM and > 100 µM	0.168 µM and 0.142 µM	19.8 µM and 10.8 µM	26 µM and 19.5 µM	32.5 µM and > 100 µM	12.4 µM	32.5 µM and 51.9 µM	20.1 µM and 21.4 µM	32.5 µM and > 100 µM	7.65 µM and 5.96 µM	32.5 µM and 64.3 µM	30.8 µM and 11.1 µM	32.5 µM and > 100 µM	0.105 µM and 0.0766 µM	6.11 µM and 4.62 µM
CCN(CC)CCC(CNc1c2ccc([N+](=O)[O-])cc2nc2cc(OC)c(OC)cc12)c1ccccc1 (stereo not given)	1.68 µM and 1.58 µM	3.78 µM and 3.76 µM	0.152 µM and 0.0895 µM	0.448 µM and 0.299 µM	0.276 µM and 0.105 µM	1.13 µM and 0.542 µM	0.335 µM and 0.305 µM	1.4 µM and 1.23 µM	0.0363 µM and 0.0428 µM	0.905 µM and 1.23 µM	0.292 µM and 0.287 µM	1.23 µM and 1.29 µM	0.269 µM and 0.0927 µM	1.01 µM and 0.335 µM	0.0379 µM and 0.057 µM	0.521 µM and 3.57 µM	0.294 µM and 0.203 µM	1.13 µM and 1.22 µM	0.542 µM and 0.696 µM	1.91 µM and 2.01 µM
O=[N+]([O-])c1ccc(Oc2cccnc2)c([N+](=O)[O-])c1	2.26 µM	22.9 µM	2.35 µM	4.39 µM	2.69 µM	6.68 µM	2.74 µM	8.61 µM	3.74 µM	17.6 µM	4.28 µM	18.7 µM	2.75 µM	6.99 µM	4.19 µM	> 100 µM	3.12 µM	12.7 µM	3.75 µM	17.3 µM
S=c1cn[nH]c2ccc(Br)cc12		> 100 µM		> 100 µM		> 100 µM		> 100 µM		> 100 µM		> 100 µM		> 100 µM		> 100 µM		> 100 µM		> 100 µM
NC(Cc1cc(Br)c(O)c(Br)c1)C(=O)O (stereo not given)		> 100 µM		> 100 µM		> 100 µM		> 100 µM		> 100 µM		> 100 µM		> 100 µM		> 100 µM		> 100 µM		> 100 µM
Cc1nc(NC(=O)COc2cccc(/C=C3\COc4ccccc4C3=O)c2)sc1C	1.5 µM	3.41 µM	1.96 µM	3.88 µM	1.5 µM	2.92 µM	1.83 µM	3.75 µM	0.665 µM	2.83 µM	1.92 µM	4.12 µM	1.83 µM	3.27 µM	0.872 µM	> 100 µM	1.54 µM	2.9 µM	2.05 µM	4.51 µM
O=C(O[C@H]1CN[C@H](C#Cc2cc3ncnc(Nc4ccc(Cc5ccccc5)cc4)c3s2)C1)N1CCOCC1	2.08 µM	> 24.1 µM	5.37 µM	13.1 µM	4.28 µM	8.72 µM	6.08 µM	18.9 µM	5.63 µM	> 20.6 µM	6.35 µM	24.9 µM	3.85 µM	11 µM	11.2 µM	> 25 µM	5.52 µM	20.3 µM	6.25 µM	> 23.5 µM
